Test results: ChEMBL document CHEMBL1201862, “PubChem BioAssay data set” (2004)
Active and inactive are the calls of the source.

Assays:
[1] = biological target: T1, Endoribonuclease toxin MazF (Escherichia coli K-12, UniProt P0AE70); test: fluorescent RNA oligo signal without MazF, dose response, counter-screen for MazEF activator project, biochemical, fluorescence, single-stranded RNase substrate (AID 588502); format: functional
T1 sequence (P0AE70 whole entry): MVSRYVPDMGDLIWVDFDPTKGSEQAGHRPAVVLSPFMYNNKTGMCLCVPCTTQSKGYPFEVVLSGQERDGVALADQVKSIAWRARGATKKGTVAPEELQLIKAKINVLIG

[2] = biological target: T1, Endoribonuclease toxin MazF; test: MazF toxin RNase activators, dose response, biochemical, fluorescence, single-stranded RNA substrate, uHTS hits (AID 588481); format: functional
[3] = biological target: Heat shock protein HSP 90-alpha (Homo sapiens, UniProt P07900); format: functional, organism-based
[4] = biological target: T2, Long-chain-fatty-acid--AMP ligase FadD28 (Mycobacterium tuberculosis, UniProt P9WQ59); test: Fluorescence polarization aasay to screen for inhibitors that compete for the binding of FadD28 to a bisubstrate Measured in Biochemical System Using Plate Reader - 2147-01_Inhibitor_Dose_CherryPick_Activity.; format: functional, Mycobacterium tuberculosis H37Rv
T2 sequence (P9WQ59 whole entry): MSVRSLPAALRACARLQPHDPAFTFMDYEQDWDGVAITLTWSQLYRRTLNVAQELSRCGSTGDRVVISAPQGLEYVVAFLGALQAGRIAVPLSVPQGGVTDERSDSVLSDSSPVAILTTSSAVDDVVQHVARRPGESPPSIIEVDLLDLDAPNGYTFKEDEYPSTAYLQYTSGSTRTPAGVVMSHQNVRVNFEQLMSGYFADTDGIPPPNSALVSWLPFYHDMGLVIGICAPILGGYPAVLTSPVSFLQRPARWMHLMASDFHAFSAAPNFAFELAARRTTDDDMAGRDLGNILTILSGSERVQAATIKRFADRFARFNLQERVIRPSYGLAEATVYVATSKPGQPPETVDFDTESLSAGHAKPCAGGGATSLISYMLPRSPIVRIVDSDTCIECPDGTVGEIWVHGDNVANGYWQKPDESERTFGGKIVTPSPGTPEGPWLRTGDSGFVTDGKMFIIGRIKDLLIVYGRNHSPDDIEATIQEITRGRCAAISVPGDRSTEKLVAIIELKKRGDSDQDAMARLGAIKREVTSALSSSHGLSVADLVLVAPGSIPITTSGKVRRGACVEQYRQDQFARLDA

HeLa = test: HeLa cell cytotoxicity, dose response, cytotoxicity control for MITF activator project, CellTiter-Glo luminescence, cherry-pick samples (AID 540259); format: functional, cell-based; conditions: Homo sapiens
H4 = test: Luminescence Cell-Based Dose Response HTS to Identify Activators of 5'UTR Stem-Loop Driven Prion Protein mRNA Translation in H4 Neuroglioblastoma Cells. [Related pubchem assays: 1829 (Project Summary), 1814 (Primary HTS)]; format: functional; conditions: Homo sapiens
[5] = Luminescence Cell-Based Dose Response HTS to Identify Activators of Luciferase Translation or Activity in H4 […] Cells. [Related pubchem assays: 1829 (Project Summary), 1814 (Primary HTS)]; format: functional
[6] = C. albicans growth with fluconazole, confirmation, fluorescence, retest (AID 2467); format: functional, cell-based
[7] = NIH-3T3 fibroblast cytotoxicity, dose response, cytotoxicity control, cell-based, fluorescence, Alamar Blue, secondary assay (AID 2327); format: functional;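 further: NIH-3T3 mouse fibroblasts cultured with fluconazole at 8 µg/mL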
Coagulation factor XII = biological target: T3, Coagulation factor XII (Homo sapiens, UniProt P00748); format: functional;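 further: activated factor XIIa alpha cleaving a fluorogenic AMC peptide substrate; inhibitor potency from loss of enzyme activity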
T3 sequence (P00748 whole entry): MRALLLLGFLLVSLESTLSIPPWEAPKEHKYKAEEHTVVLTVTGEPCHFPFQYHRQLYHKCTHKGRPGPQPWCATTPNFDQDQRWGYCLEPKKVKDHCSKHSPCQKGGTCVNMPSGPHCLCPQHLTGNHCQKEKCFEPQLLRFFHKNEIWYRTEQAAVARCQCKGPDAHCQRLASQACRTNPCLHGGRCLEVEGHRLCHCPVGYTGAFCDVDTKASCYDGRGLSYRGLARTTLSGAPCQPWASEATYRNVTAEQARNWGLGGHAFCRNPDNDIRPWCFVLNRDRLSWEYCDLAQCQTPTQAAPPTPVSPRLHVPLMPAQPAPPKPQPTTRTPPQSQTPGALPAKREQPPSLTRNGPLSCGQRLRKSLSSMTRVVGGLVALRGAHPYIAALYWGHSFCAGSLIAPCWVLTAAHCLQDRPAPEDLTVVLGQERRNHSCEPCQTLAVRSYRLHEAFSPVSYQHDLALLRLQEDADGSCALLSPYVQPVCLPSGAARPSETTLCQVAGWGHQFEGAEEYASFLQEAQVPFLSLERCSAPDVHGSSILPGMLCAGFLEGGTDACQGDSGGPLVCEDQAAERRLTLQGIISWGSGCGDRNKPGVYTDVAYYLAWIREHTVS

Cytochrome P450 1A2 = biological target: T4, Cytochrome P450 1A2 (Homo sapiens, UniProt P05177);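 further: PubChem cytochrome P450 panel assay, CYP1A2 panel member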
T4 sequence (P05177 whole entry): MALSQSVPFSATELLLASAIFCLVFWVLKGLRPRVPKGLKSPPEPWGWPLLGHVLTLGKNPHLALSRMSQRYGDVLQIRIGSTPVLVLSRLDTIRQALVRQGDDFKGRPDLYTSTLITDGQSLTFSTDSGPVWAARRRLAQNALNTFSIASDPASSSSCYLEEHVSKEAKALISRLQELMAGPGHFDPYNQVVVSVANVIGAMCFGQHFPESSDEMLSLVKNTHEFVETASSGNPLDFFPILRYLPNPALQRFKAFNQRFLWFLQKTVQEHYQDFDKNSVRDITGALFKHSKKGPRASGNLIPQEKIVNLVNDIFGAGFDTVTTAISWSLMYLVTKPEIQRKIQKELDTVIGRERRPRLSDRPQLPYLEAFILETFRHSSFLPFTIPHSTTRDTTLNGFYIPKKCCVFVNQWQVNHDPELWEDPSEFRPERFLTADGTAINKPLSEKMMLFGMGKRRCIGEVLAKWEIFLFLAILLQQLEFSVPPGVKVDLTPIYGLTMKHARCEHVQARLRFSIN

Protein skinhead-1 = biological target: T5, Protein skinhead-1 (Caenorhabditis elegans, UniProt P34707); format: functional
T5 sequence (P34707 whole entry): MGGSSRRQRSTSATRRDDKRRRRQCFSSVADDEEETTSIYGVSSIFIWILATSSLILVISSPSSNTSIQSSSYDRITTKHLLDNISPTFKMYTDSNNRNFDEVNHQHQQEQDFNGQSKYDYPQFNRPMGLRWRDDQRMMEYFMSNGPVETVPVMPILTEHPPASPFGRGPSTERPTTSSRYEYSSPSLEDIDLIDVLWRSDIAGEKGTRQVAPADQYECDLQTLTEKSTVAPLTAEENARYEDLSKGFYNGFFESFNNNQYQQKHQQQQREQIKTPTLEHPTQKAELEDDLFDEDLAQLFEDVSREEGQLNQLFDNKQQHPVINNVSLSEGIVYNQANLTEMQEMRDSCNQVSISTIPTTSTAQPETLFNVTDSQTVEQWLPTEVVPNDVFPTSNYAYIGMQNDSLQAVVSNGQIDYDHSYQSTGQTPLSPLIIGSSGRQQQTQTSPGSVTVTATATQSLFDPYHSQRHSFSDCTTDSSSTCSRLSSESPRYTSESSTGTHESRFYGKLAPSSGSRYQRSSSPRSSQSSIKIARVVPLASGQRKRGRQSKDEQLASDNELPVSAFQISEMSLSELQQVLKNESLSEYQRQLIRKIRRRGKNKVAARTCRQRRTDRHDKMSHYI

[8] = miR-122 activators in hepatoma reporter cells, dose response, cell-based, Huh7 psiCHECK-miR122, Renilla luciferase, cherry-picked (AID 651956); format: functional;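 further: huh7 hepatoma cells stably carrying a psiCHECK-2 miR-122 sensor plasmid; renilla luciferase signal reporting endogenous miR-122 activity after 48 h compound exposure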
Cytochrome P450 2C19 = Cytochrome P450 2C19 (Homo sapiens, UniProt P33261); test: Cytochrome panel assay with activity outcomes. Panel member name: p450-cyp2c19 Compounds with AC50 equal or less than 10 uM are considered active; format: functional; conditions: read-out: AC50
Cytochrome P450 2C9 = Cytochrome P450 2C9 (Homo sapiens, UniProt P11712)
Cytochrome P450 2C9, sequence (P11712 whole entry): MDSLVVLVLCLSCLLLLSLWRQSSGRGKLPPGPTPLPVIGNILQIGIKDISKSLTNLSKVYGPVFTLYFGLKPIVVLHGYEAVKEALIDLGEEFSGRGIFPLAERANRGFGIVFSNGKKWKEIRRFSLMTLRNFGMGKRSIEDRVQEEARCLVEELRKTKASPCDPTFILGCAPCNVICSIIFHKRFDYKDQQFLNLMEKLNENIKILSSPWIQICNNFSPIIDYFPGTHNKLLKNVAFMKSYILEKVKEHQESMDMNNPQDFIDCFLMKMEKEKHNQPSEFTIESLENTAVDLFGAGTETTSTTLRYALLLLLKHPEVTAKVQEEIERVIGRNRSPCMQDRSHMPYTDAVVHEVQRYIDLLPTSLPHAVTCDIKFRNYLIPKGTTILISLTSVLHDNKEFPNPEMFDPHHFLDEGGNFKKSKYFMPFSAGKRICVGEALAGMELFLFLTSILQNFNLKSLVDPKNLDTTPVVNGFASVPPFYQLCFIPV

Cytochrome P450 2C19, sequence (P33261 whole entry): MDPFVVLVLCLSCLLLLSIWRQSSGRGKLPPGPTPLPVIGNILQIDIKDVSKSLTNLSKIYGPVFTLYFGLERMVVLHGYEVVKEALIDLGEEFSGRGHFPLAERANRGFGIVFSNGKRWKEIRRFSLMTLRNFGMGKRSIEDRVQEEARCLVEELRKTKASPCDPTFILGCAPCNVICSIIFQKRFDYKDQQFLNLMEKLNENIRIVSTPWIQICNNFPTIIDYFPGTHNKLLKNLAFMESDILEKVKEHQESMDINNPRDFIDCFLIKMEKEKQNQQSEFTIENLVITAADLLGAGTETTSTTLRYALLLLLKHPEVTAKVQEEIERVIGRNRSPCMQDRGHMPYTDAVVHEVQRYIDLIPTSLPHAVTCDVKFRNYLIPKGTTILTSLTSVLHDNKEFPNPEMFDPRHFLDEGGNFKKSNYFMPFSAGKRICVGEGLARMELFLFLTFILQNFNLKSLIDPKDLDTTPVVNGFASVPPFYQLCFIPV

**Q.** What does the source list for CCOC(=O)c1c(/N=C/C2C(=O)NC(=O)NC2=O)sc2c1CCC2?
**A.** EC50 [1]: > 99 µM (inactive); EC50 [2]: > 99 µM (inactive)

**Q.** For COc1ccc2c(c1)OC[C@H]1[C@H]2N2C(=O)c3cc(Cl)ccc3NC(=O)[C@@]2(C)[C@H]1c1ccccc1, which AC50 [3] is on record?
**A.** Its AC50 is 0.976 µM (active).

**Q.** With N#C/C(=C\c1ccc([N+](=O)[O-])cc1)c1nc(C2CC2)cs1 as the compound, how does the EC50 [1] read?
**A.** The EC50 was > 99 µM (inactive).

**Q.** And the EC50 [2]?
**A.** Its EC50 is 10.4 µM (active).

**Q.** For O=C(O)c1[nH]c2ccccc2c1C(c1c(F)cccc1Cl)c1c(C(=O)O)[nH]c2ccccc12, which AC50 [4] is on record?
**A.** The AC50 was 69.9 µM (active).

**Q.** Which AC50 (HeLa) does the source give for CSc1ccc(-c2nnn(Cc3ccc(C)cc3)n2)cc1 here?
**A.** Its AC50 is 98 µM (active).

**Q.** With CSc1nccc(N/N=C/c2ccccc2)n1 as the compound, how does the EC50 (H4) read?
**A.** The EC50 was 2.55 µM (active).

**Q.** What about the EC50 [5] of the same compound?
**A.** The EC50 was 0.32 µM (active).

**Q.** And the AC50 (HeLa)?
**A.** The AC50 was 100 µM (active).

**Q.** Which AC50 [4] does the source give for O=C(N/N=C/c1ccc(O)c([N+](=O)[O-])c1)C1CC1(c1ccccc1)c1ccccc1 (stereo unspecified) here?
**A.** Its AC50 is 22.2 µM (active).

**Q.** And the EC50 [6]?
**A.** Its EC50 is 1.04 µM (active).

**Q.** What about the EC50 [7] of the same compound?
**A.** Its EC50 is > 160 µM (inactive).

**Q.** Which AC50 (HeLa) does the source give for CC1CCCC(C)N1C(=O)c1cc(-c2ccc3c(c2)OCO3)on1 (stereo unspecified) here?
**A.** The AC50 was > 350 µM (inactive).

**Q.** With Cc1onc(-c2c(F)cccc2Cl)c1-c1nnc(-c2ccc(C(F)(F)F)cc2)o1 as the compound, how does the IC50 (Coagulation factor XII) read?
**A.** The IC50 was > 50 µM (inactive).

**Q.** For CCOC(=O)c1cc2cc(OCc3ccccc3)ccc2nc1C, which AC50 [3] is on record?
**A.** The AC50 was 3.93 µM (active).

**Q.** Which AC50 (Cytochrome P450 1A2) does the source give for c1ccc(CCNc2nnnn2-c2ccccc2)cc1 here?
**A.** Its AC50 is 2.51 µM (inconclusive).

**Q.** And the IC50 (Protein skinhead-1)?
**A.** The IC50 was > 100 µM (inactive).

**Q.** And the AC50 [8]?
**A.** The AC50 was 9.58 µM (active).

**Q.** And the AC50 (Cytochrome P450 2C19)?
**A.** The AC50 was 1.78 µM (inconclusive).

**Q.** And the AC50 (Cytochrome P450 2C9)?
**A.** The AC50 was 11.2 µM (inconclusive).
